Assay results from patent publication US20030104451A1, “Arrays using polymerized monomolecular films and methods for using and manufacturing the same” (priority 2001, published 2003).

Target: T1, streptavidin (Streptomyces avidinii, UniProt P22629)
T1 construct: purchased Sigma-Aldrich
Assay: Competitive inhibition of streptavidin capture on biotin-PDTF by free biotin
Type: binding
Settings: streptavidin preincubated 30 min with free biotin; chip 0.25 pmol/monolayer biotin (1% biotin-PDTF)
Description: The remaining free protein (in this case streptavidin) concentration in solution can then be estimated with the MILD-MALDI-MS approach.
The surfaces were allowed to air dry.

For `O=C(O)CCCC[C@@H]1SC[C@@H]2NC(=O)N[C@@H]21` [biotin], which “free biotin excess over streptavidin at which competition is clearly seen” value is on record?
The value was 100 -fold.
